Tested on: 772245-204-R-J1-PDC complex spheroid growth
Test: Anticancer human tumor 772245-204-R-J1-PDC patient-derived rhabdomyosarcoma cell line growth inhibition [Asc]
Conditions: for IC50: curve of first compound; for viability, T/C: stronger effect = lower value
Outline: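 Tumor cells were grown as multicellular spheroids with stromal HUVEC and mesenchymal stem cells and treated singly or in combination. Concentrations fell in half-log steps from the clinical Cmax, or from 10 microM where none was known.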

[1] = second compound 0.01 µM, first compound 0.00316 µM
[2] = second compound 0.01 µM, first compound 0.01 µM
[3] = second compound 0.01 µM, first compound 0.0316 µM
[4] = second compound 0.01 µM, first compound 0.1 µM
[5] = second compound 0.01 µM, first compound 0.316 µM
[6] = second compound 0.01 µM, first compound 1 µM
[7] = second compound 0.0316 µM, first compound 0.00316 µM
[8] = second compound 0.0316 µM, first compound 0.01 µM
[9] = second compound 0.0316 µM, first compound 0.0316 µM
[10] = second compound 0.0316 µM, first compound 0.1 µM
[11] = second compound 0.0316 µM, first compound 0.316 µM
[12] = second compound 0.0316 µM, first compound 1 µM
[13] = second compound 0.1 µM, first compound 0.00316 µM
[14] = second compound 0.1 µM, first compound 0.01 µM
[15] = second compound 0.1 µM, first compound 0.0316 µM
[16] = second compound 0.1 µM, first compound 0.1 µM
[17] = second compound 0.1 µM, first compound 0.316 µM
[18] = second compound 0.1 µM, first compound 1 µM
[19] = second compound 0.316 µM, first compound 0.00316 µM
[20] = second compound 0.316 µM, first compound 0.01 µM
[21] = second compound 0.316 µM, first compound 0.0316 µM
[22] = second compound 0.316 µM, first compound 0.1 µM
[23] = second compound 0.316 µM, first compound 0.316 µM
[24] = second compound 0.316 µM, first compound 1 µM
[25] = second compound 1 µM, first compound 0.00316 µM
[26] = second compound 1 µM, first compound 0.01 µM
[27] = second compound 1 µM, first compound 0.0316 µM
[28] = second compound 1 µM, first compound 0.1 µM
[29] = second compound 1 µM, first compound 0.316 µM
[30] = second compound 1 µM, first compound 1 µM
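Further: compound exposure lasted seven days.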
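Wherever viability, T/C is given: 100% = DMSO vehicle control viability.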

IC50 (second compound 0.01 µM) [µM]	IC50 (second compound 0.0316 µM) [µM]	IC50 (second compound 0.1 µM) [µM]	IC50 (second compound 0.316 µM) [µM]	IC50 (second compound 1 µM) [µM]	Structure (SMILES)	viability, T/C [1] [%]	viability, T/C [2] [%]	viability, T/C [3] [%]	viability, T/C [4] [%]	viability, T/C [5] [%]	viability, T/C [6] [%]	viability, T/C [7] [%]	viability, T/C [9] [%]	viability, T/C [10] [%]	viability, T/C [15] [%]	viability, T/C [16] [%]	viability, T/C [21] [%]	viability, T/C [22] [%]	viability, T/C [27] [%]	viability, T/C [28] [%]	other results
> 1	> 1	> 1	> 1	> 1	CCN1CCN(Cc2ccc(Nc3ncc(F)c(-c4cc(F)c5nc(C)n(C(C)C)c5c4)n3)nc2)CC1 + CNC(C)C(=O)NC1CN(S(=O)(=O)c2cccc(S(=O)(=O)N3CCC4CCC(C(=O)NC(c5ccccc5)c5ccccc5)N4C(=O)C(NC(=O)C(C)NC)C3)c2)CCC2CCC(C(=O)NC(c3ccccc3)c3ccccc3)N2C1=O	104	94.3	90.8	99.8	106	108	85.3	96	94	85.8	104	96.1	89.4	102	98.8	viability, T/C [8]: 95.3%; viability, T/C [11]: 102%; viability, T/C [12]: 103%; viability, T/C [13]: 82.3%; viability, T/C [14]: 89.9%; viability, T/C [17]: 104%; viability, T/C [18]: 115%; viability, T/C [19]: 103%; viability, T/C [20]: 94.1%; viability, T/C [23]: 92.8%; viability, T/C [24]: 104%; viability, T/C [25]: 87.8%; viability, T/C [26]: 94.3%; viability, T/C [29]: 105%; viability, T/C [30]: 104%
> 0.1	> 0.1	> 0.1	> 0.1	> 0.1	Cn1ncnc1[C@H]1c2n[nH]c(=O)c3cc(F)cc(c23)N[C@@H]1c1ccc(F)cc1 + CNC(C)C(=O)NC1CN(S(=O)(=O)c2cccc(S(=O)(=O)N3CCC4CCC(C(=O)NC(c5ccccc5)c5ccccc5)N4C(=O)C(NC(=O)C(C)NC)C3)c2)CCC2CCC(C(=O)NC(c3ccccc3)c3ccccc3)N2C1=O	91.7	90	91	76.1			99.7	85	94.2	81.7	79.4	89.2	94.4	84.2	85.6	viability, T/C (second compound 0.01 µM, first compound 0.000316 µM): 85.5%; viability, T/C (second compound 0.01 µM, first compound 0.001 µM): 83.7%; viability, T/C (second compound 0.0316 µM, first compound 0.000316 µM): 98.9%; viability, T/C (second compound 0.0316 µM, first compound 0.001 µM): 94.9%; viability, T/C [8]: 97.1%; viability, T/C (second compound 0.1 µM, first compound 0.000316 µM): 97%; viability, T/C (second compound 0.1 µM, first compound 0.001 µM): 96.6%; viability, T/C [13]: 85.7%; viability, T/C [14]: 102%; viability, T/C (second compound 0.316 µM, first compound 0.000316 µM): 97.3%; viability, T/C (second compound 0.316 µM, first compound 0.001 µM): 96.2%; viability, T/C [19]: 96.1%; viability, T/C [20]: 82.2%; viability, T/C (second compound 1 µM, first compound 0.000316 µM): 112%; viability, T/C (second compound 1 µM, first compound 0.001 µM): 88.4%; viability, T/C [25]: 97.8%; viability, T/C [26]: 85.3%
> 10	> 10	> 10	> 10	> 10	O=C(c1cc(Cc2n[nH]c(=O)c3ccccc23)ccc1F)N1CCN(C(=O)C2CC2)CC1 + CNC(C)C(=O)NC1CN(S(=O)(=O)c2cccc(S(=O)(=O)N3CCC4CCC(C(=O)NC(c5ccccc5)c5ccccc5)N4C(=O)C(NC(=O)C(C)NC)C3)c2)CCC2CCC(C(=O)NC(c3ccccc3)c3ccccc3)N2C1=O			93.6	99.7	99	98.5		106	104	103	99.2	102	106	106	94.1	viability, T/C (second compound 0.01 µM, first compound 3.16 µM): 80.5%; viability, T/C (second compound 0.01 µM, first compound 10 µM): 81.1%; viability, T/C [11]: 88.6%; viability, T/C [12]: 113%; viability, T/C (second compound 0.0316 µM, first compound 3.16 µM): 96.1%; viability, T/C (second compound 0.0316 µM, first compound 10 µM): 97.7%; viability, T/C [17]: 98%; viability, T/C [18]: 86.7%; viability, T/C (second compound 0.1 µM, first compound 3.16 µM): 78.3%; viability, T/C (second compound 0.1 µM, first compound 10 µM): 76.5%; viability, T/C [23]: 106%; viability, T/C [24]: 94.5%; viability, T/C (second compound 0.316 µM, first compound 3.16 µM): 81.2%; viability, T/C (second compound 0.316 µM, first compound 10 µM): 78%; viability, T/C [29]: 103%; viability, T/C [30]: 97.2%; viability, T/C (second compound 1 µM, first compound 3.16 µM): 82.6%; viability, T/C (second compound 1 µM, first compound 10 µM): 94.8%
> 1	> 1	> 1	> 1	> 1	O=C(c1ccc(F)c(F)c1Nc1ccc(I)cc1F)N1CC(O)([C@@H]2CCCCN2)C1 + CNC(C)C(=O)NC1CN(S(=O)(=O)c2cccc(S(=O)(=O)N3CCC4CCC(C(=O)NC(c5ccccc5)c5ccccc5)N4C(=O)C(NC(=O)C(C)NC)C3)c2)CCC2CCC(C(=O)NC(c3ccccc3)c3ccccc3)N2C1=O	93.1	85.4	93.3	84.8	97.9	105	98.3	95.2	93.2	90.1	87.6	96.8	99.8	88.8	92	viability, T/C [8]: 90.7%; viability, T/C [11]: 101%; viability, T/C [12]: 95.4%; viability, T/C [13]: 93.3%; viability, T/C [14]: 84.8%; viability, T/C [17]: 103%; viability, T/C [18]: 77.9%; viability, T/C [19]: 91.7%; viability, T/C [20]: 88.1%; viability, T/C [23]: 103%; viability, T/C [24]: 112%; viability, T/C [25]: 100%; viability, T/C [26]: 89.7%; viability, T/C [29]: 94.5%; viability, T/C [30]: 97.6%
